In the oligonucleotide strings, read from the 5' end, every base follows the letter of its sugar. An asterisk marks phosphorothioate; unmarked linkages are phosphodiester. Other units and linkages are bracketed, terminal groups are in braces. A string of capitals states the bases alone. [Ab] = 3'-terminal abasic nucleotide; d = 2'-deoxy (DNA); m = 2'-O-methyl; r = 2'-OH (RNA)
Tested on: PCSK9 mRNA
Assay: In vitro screening of modified dsRNAs targeted to PCSK9 (Table 2b; cell type not given)
Type: cell-based
Details: 30 nM siRNA
Description: For transfection with siRNA, HuH7, HepG2, or HeLa cells were seeded at a density of 2.0×10^4 cells/well in 96-well plates and transfected directly. Transfection of siRNA (30 nM for single dose screen) was carried out with lipofectamine 2000 (Invitrogen GmbH, Karlsruhe, Germany, cat. No. 11668-019) as described by the manufacturer.
24 hours after transfection HuH7 and HepG2 cells were lysed and PCSK9 mRNA levels were quantified with the Quantigene Explore Kit (Genosprectra, Dumbarton Circle Fremont, USA, cat. No. QG-000-02) according to the protocol. PCSK9 mRNA levels were normalized to GAP-DH mRNA. For each siRNA eight individual datapoints were collected. siRNA duplexes unrelated to PCSK9 gene were used as control. The activity of a given PCSK9 specific siRNA duplex was expressed as percent PCSK9 mRNA concentration in treated cells relative to PCSK9 mRNA concentration in cells treated with the control siRNA duplex.
Tables 1b and 2b (and FIG. 6A) summarize the results and provide examples of in vitro screens in different cell lines at different doses. Silencing of PCSK9 transcript was expressed as percentage of remaining transcript at a given dose.

Q: Which “Remaining mRNA in % of controls at siRNA conc. of 30 nM” value (“Remaining mRNA in % of controls” for short) does the source give for “AD-12053: modified dsRNA, SEQ ID NO:1341/1342 (chain 1 rGmCmCmUrGrGrArGmUmUmUrAmUmUmCrGrGrArArArArGdTdT[Ab]; chain 2 rCrUrUrUrUrCrCrGrArArUrArArArCrUrCrCrArGrGrCdTdT[Ab])” here?
A: 46%

Q: “AD-12054: modified dsRNA, SEQ ID NO:1343/1344 (chain 1 rGrCrCrUrGrGrArGrUrUrUrArUrUrCrGrGrArAdT*dT; chain 2 rUrUrCrCrGrArArUrArArArCrUrCrCrArGrGrC*mC*mU)” was tested. Which “Remaining mRNA in % of controls” value did it give?
A: 8%

Q: “AD-12055: modified dsRNA, SEQ ID NO:1345/1346 (chain 1 rGmCmCmUrGrGrArGmUmUmUrAmUmUmCrGrGrArAdT*dT; chain 2 rUrUrCrCrGrArArUrArArArCrUrCrCrArGrGrC*mC*mU)” was tested. Which “Remaining mRNA in % of controls” value did it give?
A: 13%

Q: With “AD-12056: modified dsRNA, SEQ ID NO:1347/1348 (chain 1 rGmCrCmUrGmGrAmGrUmUrUmArUmUrCmGrGmArA; chain 2 rUrUrCrCrGrArArUrArArArCrUrCrCrArGrGrCdTdT[Ab])” as the substance, how does the “Remaining mRNA in % of controls” value read?
A: 11%

Q: With “AD-12057: modified dsRNA, SEQ ID NO:1349/1350 (chain 1 rGmCrCmUrGmGrAmGrUmUrUmArUmUrCmGrGmArA; chain 2 rUrUrCrCrGrArArUrArArArCrUrCrCrArGrGrCdT*dT)” as the substance, how does the “Remaining mRNA in % of controls” value read?
A: 8%

Q: For “AD-12058: modified dsRNA, SEQ ID NO:1351/1352 (chain 1 rGmCrCmUrGmGrAmGrUmUrUmArUmUrCmGrGmArA; chain 2 rUrUrCrCrGrArAmUrArArArCrUrCmCrArGrGrCdT*dT)”, which “Remaining mRNA in % of controls” value is on record?
A: 9%

Q: With “AD-12059: modified dsRNA, SEQ ID NO:1353/1354 (chain 1 rGmCrCmUrGmGrAmGrUmUrUmArUmUrCmGrGmArA; chain 2 mUrUmCrCrGrArAmUrArArArCrUmCmCrArGrGrCdT*dT)” as the substance, how does the “Remaining mRNA in % of controls” value read?
A: 23%

Q: How did the “Remaining mRNA in % of controls” value turn out when “AD-12060: modified dsRNA, SEQ ID NO:1355/1356 (chain 1 rGmCrCmUrGmGrAmGrUmUrUmArUmUrCmGrGmArA; chain 2 rUrUrCrCrGmAmArUrAmAmArCrUrCrCrAmGmGmC)” was run?
A: 10%

Q: Which “Remaining mRNA in % of controls” value does the source give for “AD-12061: modified dsRNA, SEQ ID NO:1357/1358 (chain 1 GCCUGGNAGUUUAUUCGGAATT; chain 2 rUrUrCrCrGmAmArUrAmAmArCrUrCrCrAmGmGmCdT*dT; chain 1: chemistry not given here; sense strand contains an undefined nucleotide n)” here?
A: 7%

Q: How did the “Remaining mRNA in % of controls” value turn out when “AD-12062: modified dsRNA, SEQ ID NO:1359/1360 (chain 1 rGmCrCmUrGmGrAmGrUmUrUmArUmUrCmGrGmArAdTdT[Ab]; chain 2 rUrUrCrCrGmAmArUrAmAmArCrUrCrCrAmGmGmCdTdT[Ab])” was run?
A: 10%

Q: For “AD-12063: modified dsRNA, SEQ ID NO:1361/1362 (chain 1 rGmCrCmUrGmGrAmGrUmUrUmArUmUrCmGrGmArA; chain 2 rUrUrCrCrGmAmArUrAmAmArCrUrCrCrAmGmGmC*mC*mU)”, which “Remaining mRNA in % of controls” value is on record?
A: 19%

Q: For “AD-12064: modified dsRNA, SEQ ID NO:1363/1364 (chain 1 GCCUGGNAGUUUAUUCGGAATT; chain 2 rUrUrCrCrGrArAmUrArArArCrUrCmCrArGrGrCdT*dT; chain 1: chemistry not given here; sense strand contains an undefined nucleotide n)”, which “Remaining mRNA in % of controls” value is on record?
A: 15%

Q: Which “Remaining mRNA in % of controls” value does the source give for “AD-12065: modified dsRNA, SEQ ID NO:1365/1366 (chain 1 rGmCrCmUrGmGrAmGrUmUrUmArUmUrCmGrGmArAdTdT[Ab]; chain 2 rUrUrCrCrGrArAmUrArArArCrUrCmCrArGrGrCdTdT[Ab])” here?
A: 16%

Q: With “AD-12066: modified dsRNA, SEQ ID NO:1367/1368 (chain 1 rGmCrCmUrGmGrAmGrUmUrUmArUmUrCmGrGmArA; chain 2 rUrUrCrCrGrArAmUrArArArCrUrCmCrArGrGrC*mC*mU)” as the substance, how does the “Remaining mRNA in % of controls” value read?
A: 20%

From patent US20120016009A1, “Optimized Methods For Delivery Of DSRNA Targeting The PCSK9 Gene” (priority 2008, published 2012)
